From ChEMBL document CHEMBL3301546, “MMV Malaria Box yeast growth screening”

What was measured:
Assay type in all cases: functional
Saccharomyces cerevisiae [1] = assay: (§1) MMV: Growth assays were conducted using the prototrophic S. cerevisiae strain JHY222. Each MMV compound (0.1 mM) was tested in minimal media containing dextrose as a carbon source (Yeast Nitrogen Base, Dextrose; YNBD). The growth rate in the presence of each MMV compound was calculated as follows: (i) the first 10 OD readings were averaged and subtracted from all OD readings of the corresponding curve to set the baseline of the growth curve to zero, and (ii) the area under the curve (AUC) was then calculated as the sum of all OD readings. […] A relative growth value was calculated as follows: AUC(DRUG) - AUC(DMSO)/AUC(DMSO); where AUC(DMSO) represents growth measured in a DMSO control well that was on the same microtiter plate of the drug-treated culture.
Saccharomyces cerevisiae [2] = assay: as §1, with “ethanol and glycerol” for “dextrose”, “as” for “as a”, “sources” for “source”, “Ethanol, Glycerol; YNBEG).” for “Dextrose; YNBD).”
Saccharomyces cerevisiae [3] = assay: as §1, with “rich” for “minimal”, “Extract, Peptone,” for “Nitrogen Base,”, “YPD).” for “YNBD).”

| Structure (SMILES) | Relative Growth (Saccharomyces cerevisiae [1]) | Relative Growth (Saccharomyces cerevisiae [2]) | Relative Growth (Saccharomyces cerevisiae [3]) |
| --- | --- | --- | --- |
| CCn1c(CN2CCN(Cc3ccccc3)CC2)nc2cc(NC(=O)c3cccs3)ccc21 | -0.4968 | -0.226 | -0.0008 |
| COc1ccc(N2CCN(C(CNC(=O)C3CCCCC3)c3ccc4c(c3)OCO4)CC2)cc1 (configuration not stated) | -0.0986 | -0.124 | -0.0299 |
| CCOc1cc2c(cc1OCC)C(c1cc(Cl)c(O)c(OCC)c1)NCC2 (configuration not stated) | 0.0679 | -0.0121 | 0.0051 |
| OC(CNC1CCCCC1)Cn1c2ccc(I)cc2c2cc(I)ccc21 (configuration not stated) | 0.4002 | -0.0994 | 0.0125 |
| CCOC(=O)c1cn(CC)c2cc(N3CCCCC3)c(F)cc2c1=O | -0.2997 | -0.2149 | -0.0482 |
| COc1ccc(-c2cc3c(nn2)-c2ccccc2C3=O)cc1 | -0.3119 | -0.8829 | 0.0333 |
| CCCCCCc1cc2cc(-c3nc4ccccc4[nH]3)c(=Nc3ccccc3C)oc2cc1O | 0.1107 | -0.1213 | -0.0113 |
| Nc1ccc(-c2nc3cc(Cc4ccc5[nH]c(-c6ccc(N)cc6)nc5c4)ccc3[nH]2)cc1 | -0.0312 | -0.1364 | -0.9832 |
| CCN(CC)CCn1c(=N)n(CC(O)c2ccc(Cl)c(Cl)c2)c2ccccc21.Cl (configuration not stated) | 0.0285 | 0.1274 | -0.0663 |
| CCOc1ccc2c(c1)CN(Cc1ccc(Cl)cc1)CO2 | -0.0363 | -0.0581 | -0.0457 |
| O=C(NCC1Cc2cccc(-c3ccncc3)c2O1)c1csc2c1CCCC2 (configuration not stated) | 0.0203 | 0.1029 | 0.0158 |
| Cc1nc2ccccc2c(O)c1CC=C(Cl)Cl | -0.0687 | -1.0138 | -0.1226 |
| COc1nc(Nc2ccc(C(C)C)cc2)nc(OC)n1 | 0.0529 | 0.0254 | -0.007 |
| COc1cc(OC)cc(N2C(=O)N(Cc3ccc(C(C)(C)C)cc3)c3ccccc3S2(=O)=O)c1 | 0.0008 | -0.0128 | -0.7249 |
| Oc1c(C(Nc2ccccn2)c2cccc(Oc3ccccc3)c2)ccc2cccnc12 (configuration not stated) | 0.0038 | -0.1371 | -0.9969 |
| COc1ccc(-c2cn3c(C(=O)Nc4ccccc4Cl)c(-c4ccccc4)c4c3n2CCCC4)cc1 | 0.0523 | -0.235 | -0.0135 |
| CCOc1cc(Cl)c(C(C)NC(=O)c2ccccc2)cc1OCC (configuration not stated) | -0.0221 | -0.1365 | 0.0477 |
| CCOc1cc2c(cc1OCC)C(c1cc(OC)c(O)cc1Cl)NCC2 (configuration not stated) | 0.0876 | 0.0748 | -0.0054 |
| O=c1c2c([nH]c3ccccc13)CCCC2 | -0.018 | -0.326 | -0.0433 |
| COc1cccc(-c2nn(C)c3sc(C(=O)NCCN4CCN(c5ccccc5F)CC4)cc23)c1 | -0.0156 | 0.0691 | 0.1401 |
| COc1ccccc1CNC(=O)C1c2ccccc2C(=O)N(CC(C)C)C1c1cccs1 (configuration not stated) | -0.0764 | -0.0424 | -0.1327 |
| COc1ccc(C2Sc3ccccc3N=C3C2=C(O)c2ccccc23)cc1 (configuration not stated) | -0.0473 | 0.0327 | 0.0982 |
| Cl.c1ccc2c(NCCCCCCNc3c4c(nc5ccccc35)CCCC4)c3c(nc2c1)CCCC3 | -0.2454 | -0.2596 | -0.0331 |
| COc1ccc2nc(C)cc(Nc3ccc(Cl)cc3)c2c1 | 0.0064 | -0.1037 | -0.0836 |
| COc1ccc(Br)cc1C1Nc2ccc3ccccc3c2C2=C1C(=O)CC(c1ccccc1)C2 (configuration not stated) | 0.0368 | -0.105 | -0.0736 |
| Cl.Oc1ccccc1CNCC12CC3CC(CC(C3)C1)C2 | 0.0701 | 0.0858 | -0.0154 |
| C[n+]1c2ccccc2nc2ccc(NCCO)cc21 | 0.0053 | -0.0436 | -0.1972 |

| Structure (SMILES) | Relative Growth (Saccharomyces cerevisiae [1]) | Relative Growth (Saccharomyces cerevisiae [2]) | Relative Growth (Saccharomyces cerevisiae [3]) |
| --- | --- | --- | --- |
| c1ccc2cc3c(Nc4ccc(N5CCOCC5)cc4)ccnc3cc2c1 | 0.0841 | 0.2097 | 0.0179 |
| Cc1cc(NC(=O)c2ccc(-c3ccccc3)cc2)no1 | 0.0468 | 0.0052 | -0.0826 |
| Nc1ccn([C@@H]2O[C@H](CO)[C@@H](O)[C@H]2O)c(=O)n1 [CYTIDINE] | 0.1163 | -0.4063 | -0.0768 |
| CCN(CC)c1ccc(NC(=O)c2cccs2)cc1 | -0.1938 | -0.4168 | -0.0445 |
| COc1cccc(Nc2nc(NCCO)c3ccccc3n2)c1.Cl | -0.0288 | -0.0151 | 0.0163 |
| O=C(Nc1ccc(-c2nc3cc(NC(=O)c4ccc(Cl)cc4)ccc3[nH]2)cc1)c1ccc(Cl)cc1 | 0.0064 | 0.0694 | -0.0297 |
| COc1cccc(Nc2nc(N)c3ccccc3n2)c1.Cl | 0.0154 | -0.036 | 0.0358 |
| CCOc1ccc(CN2CCN(CC(O)COc3ccc(OCC(O)CN4CCN(Cc5ccc(OCC)cc5)CC4)cc3)CC2)cc1 (configuration not stated) | -0.1042 | -0.2934 | -0.0814 |
| COc1ccc(N2CCN(C(CNC(=O)CC(C)(C)C)c3ccc4c(c3)OCO4)CC2)cc1 (configuration not stated) | -0.0787 | -0.1806 | 0.0032 |
| O=C(Nc1ccccc1O)c1ccc(Oc2cccc(C(=O)Nc3ccccc3O)c2)cc1 | 0.0291 | -0.0198 | -0.023 |
| CN1CCN(c2ncnc3c2[nH]c2ccc(Cl)cc23)CC1 | 0.0494 | 0.0216 | 0.0011 |
| CCCn1c(=N)c(C(=O)NC2CCCCC2)cc2c(=O)n3cccc(C)c3nc21 | 0.1028 | 0.0799 | -0.0177 |
| COc1cccc(Cn2c(Oc3ccccc3)nc3c2c(=O)n(C)c(=O)n3C)c1 | -0.1115 | -0.4904 | -0.0536 |
| N#Cc1nc(Cc2cccc3ccccc23)oc1N1CCN(C(c2ccccc2)c2ccccc2)CC1 | 0.059 | 0.0463 | -0.0026 |
| Cc1cc(NC(=O)c2cccc(C(F)(F)F)c2)n(-c2nc(-c3ccc4c(c3)OCO4)cs2)n1 | -0.0865 | -0.0763 | -0.007 |
| c1ccc2c(NCCc3c[nH]c4ccccc34)c3ccccc3nc2c1 | -0.0449 | -0.0957 | -0.7261 |
| COc1ccc(CNC(=O)c2cc3c(=O)n4ccccc4nc3n(CCc3ccccc3)c2=N)cc1 | -0.2162 | -0.0439 | -0.0554 |
| COc1ccc(C)c2sc(N(Cc3cccnc3)C(=O)c3ccc(C#N)cc3)nc12 | -0.0341 | 0.0255 | -0.0087 |
| O=C1c2ccccc2C2=Nc3ccccc3SC(c3cccc(F)c3)C12 (configuration not stated) | -0.0716 | -0.2808 | 0.0574 |
| O=C(Nc1cccc(C2=NCCN2)c1)Nc1cccc(C2=NCCN2)c1 [IMIDOCARB] | 0.0218 | 0.0151 | -0.365 |
| COc1cccc(C(=O)NC(c2ccc(C)cc2)c2cc(Cl)c3cccnc3c2O)c1 (configuration not stated) | 0.017 | 0.1449 | -0.0292 |
| CC(C)c1ccc(CNCC(O)c2ccccc2)cc1.Cl (configuration not stated) | 0.1145 | 0.0017 | -0.02 |
| CN1CCN(c2c3c(c(C#N)c4nc5ccccc5n24)CCC3)CC1 | 0.2469 | -0.4878 | -0.0644 |
| O=c1nc(C=Cc2ccc(Br)cc2)oc2ccccc12 | 0.007 | 0.0189 | -0.0705 |
| COc1ccc(-c2nonc2NC(=O)c2cccc(Cl)c2)cc1OC | 0.1832 | 0.0561 | -0.028 |
| CN(C)c1ccc(N=Cc2ccc(N3CCOCC3)cc2)cc1 | 0.0616 | 0.068 | -0.0781 |
| COc1ccc2c(c1)OC(O)(C(F)(F)C(F)(F)F)CC2=O (configuration not stated) | 0.1423 | -0.103 | 0.0151 |
